# According to patent EP0484596A1, “Organotin compounds and anti-tumor compositions containing them” (priority 1990, dated 1992):
# Key:
# MCF-7 mammary carcinoma = assay: in vitro cell growth inhibition, PIT method, MCF-7; format: cell-based, human; conditions: amount which inhibits 50% of the cell growth
# Method: (§1) The compounds (1), (2) and (3) as well as their starting compounds, i.e. (4), (5) and (6) respectively, [drawing 8] were tested in vitro against the following human tumor cell lines • MCF-7 mammary carcinoma • WiDr colon tumor cells
# (§2) The tests were carried out according to the method of R. van Lambalgen and P. Lelieveld, The PIT Method: an automated in vitro technique for drug toxicity testing. Invest. New Drug 5, 161-165 (1987).
# (§3) The ID50 values in ng/ml for the above compounds were determined, i.e. the amount which inhibits 50% of the cell growth.
# WiDr colon tumor cells = assay: in vitro cell growth inhibition, PIT method, WiDr; format: cell-based, human; conditions: amount which inhibits 50% of the cell growth
# Method: as §1, §2, §3
smiles,measurement,setting,value
N.N.[Cl][Pt][Cl] [Cis-platin],ID50,MCF-7 mammary carcinoma,0.85 µg/mL
same,ID50,WiDr colon tumor cells,0.624 µg/mL
